Columns and labels:
Echinochloa oryzicola [1] = experiment: Post-emergence herbicide activity against Echinochloa oryzicola under greenhouse condition at 1 g a.i/a treated at one-leaf stage measured after 3 weeks; format: functional
Echinochloa oryzicola [2] = experiment: Pre-emergence herbicide activity against Echinochloa oryzicola under greenhouse condition at 1 g a.i/a measured after 3 weeks; format: functional
[3] = system: Schoenoplectiella juncoides; experiment: Pre-emergence herbicide activity against Schoenoplectiella juncoides under greenhouse condition at 1 g a.i/a measured after 3 weeks; format: functional
Echinochloa oryzicola [4] = experiment: Post-emergence herbicide activity against Echinochloa oryzicola under greenhouse condition at 10 g a.i/a treated at one-leaf stage measured after 3 weeks; format: functional
[5] = system: Schoenoplectiella juncoides; experiment: Post-emergence herbicide activity against Schoenoplectiella juncoides under greenhouse condition at 10 g a.i/a treated at one-leaf stage measured after 3 weeks; format: functional
Echinochloa oryzicola [6] = experiment: Pre-emergence herbicide activity against Echinochloa oryzicola under greenhouse condition at 10 g a.i/a measured after 3 weeks; format: functional
[7] = system: Schoenoplectiella juncoides; experiment: Pre-emergence herbicide activity against Schoenoplectiella juncoides under greenhouse condition at 10 g a.i/a measured after 3 weeks; format: functional
[8] = system: Schoenoplectiella juncoides; experiment: Post-emergence herbicide activity against Schoenoplectiella juncoides under greenhouse condition at 1 g a.i/a treated at one-leaf stage measured after 3 weeks; format: functional
Echinochloa oryzicola [9] = experiment: Herbicidal activity against Echinochloa oryzicola at 2.5 g a.i/a treated at 2.5 leaf stage measured after 3 weeks; format: functional
Echinochloa oryzicola [10] = experiment: Herbicidal activity against Echinochloa oryzicola at 5.0 g a.i/a treated at 2.5 leaf stage measured after 3 weeks; format: functional
Oryza sativa [11] = experiment: Phytotoxicity against two-leaf stage Oryza sativa cv. Nipponbare (rice) planted zero cm depth at 5.0 g a.i/a measured after 3 weeks; format: organism-based; conditions: in vivo, 504 h
Echinochloa oryzicola [12] = experiment: Herbicidal activity against Echinochloa oryzicola at 5.0 g a.i/a treated at 1.5 leaf stage measured after 3 weeks; format: functional
Oryza sativa [13] = experiment: Phytotoxicity against two-leaf stage Oryza sativa cv. Nipponbare (rice) planted zero cm depth at 2.5 g a.i/a measured after 3 weeks; format: organism-based; conditions: in vivo, other, 504 h
Oryza sativa [14] = experiment: Phytotoxicity against two-leaf stage Oryza sativa cv. Nipponbare (rice) planted 2 cm depth at 1 g a.i/a measured after 3 weeks; format: organism-based; conditions: in vivo, other, 504 h
Oryza sativa [15] = experiment: Phytotoxicity against two-leaf stage Oryza sativa cv. Nipponbare (rice) planted zero cm depth at 1 g a.i/a measured after 3 weeks; format: organism-based; conditions: in vivo, other, 504 h
Oryza sativa [16] = experiment: Phytotoxicity against two-leaf stage Oryza sativa cv. Nipponbare (rice) planted 2 cm depth at 5.0 g a.i/a measured after 3 weeks; format: organism-based; conditions: in vivo, 504 h
Echinochloa oryzicola [17] = experiment: Herbicidal activity against Echinochloa oryzicola at 1 g a.i/a treated at 1.5 leaf stage measured after 3 weeks; format: functional
Echinochloa oryzicola [18] = experiment: Herbicidal activity against Echinochloa oryzicola at 2.5 g a.i/a treated at 1.5 leaf stage measured after 3 weeks; format: functional
Oryza sativa [19] = experiment: Phytotoxicity against two-leaf stage Oryza sativa cv. Nipponbare (rice) planted 2 cm depth at 2.5 g a.i/a measured after 3 weeks; format: organism-based; conditions: in vivo, 504 h
Echinochloa oryzicola [20] = experiment: Herbicidal activity against Echinochloa oryzicola at 1 g a.i/a treated at 2.5 leaf stage measured after 3 weeks; format: functional

Row | Structure (SMILES) | Activity (Echinochloa oryzicola [1]) [%] | Activity (Echinochloa oryzicola [2]) [%] | Activity [3] [%] | Activity (Echinochloa oryzicola [4]) [%] | Activity [5] [%] | Activity (Echinochloa oryzicola [6]) [%] | Activity [7] [%] | Activity [8] [%] | Activity (Echinochloa oryzicola [9]) [%] | Activity (Echinochloa oryzicola [10]) [%] | Activity (Oryza sativa [11]) [%] | Activity (Echinochloa oryzicola [12]) [%] | Activity (Oryza sativa [13]) [%] | Activity (Oryza sativa [14]) [%] | Activity (Oryza sativa [15]) [%] | Activity (Oryza sativa [16]) [%] | Activity (Echinochloa oryzicola [17]) [%] | Activity (Echinochloa oryzicola [18]) [%] | Activity (Oryza sativa [19]) [%] | Activity (Echinochloa oryzicola [20]) [%]
1 | COC(=O)C1(c2ccccc2)C(=O)N(C(C)(C)c2ccc3ccccc3c2)C=C1C (stereo not drawn) | 0.1 | 87.6 | 0 | 100 | 87.6 | 100 | 87.6 | 0 | – | – | – | – | – | – | – | – | – | – | – | –
2 | CC1=CN(C(C)(C)c2cc(Cl)cc(Cl)c2)C(=O)C1(C(=O)OCc1ccccc1)c1ccccc1 (stereo not drawn) | 50.1 | 0 | 0 | 100 | 0 | 100 | 0 | 0 | – | – | – | – | – | – | – | – | – | – | – | –
3 | COC(=O)C1(c2ccccc2)C(=O)N(C(C)(C)c2cccc(Cl)c2)C=C1C (stereo not drawn) | 50.1 | 100 | 50.1 | 100 | 87.6 | 100 | 100 | 87.6 | 90 | 99 | 98 | 100 | 95 | 0 | 80 | 0 | 99 | 100 | 0 | 40
4 | COCC1=CN(C(C)(C)c2cc(Cl)cc(Cl)c2)C(=O)C1(C(=O)OC)c1ccccc1 (stereo not drawn) | 75.1 | 100 | 50.1 | 100 | 87.6 | 100 | 100 | 87.6 | 65 | 98 | 98 | 100 | 30 | – | – | 0 | – | 99 | 0 | –
5 | CCOC(=O)C1(c2ccccc2)C(=O)N(C(C)(C)c2cc(Cl)cc(Cl)c2)C=C1C (stereo not drawn) | 87.6 | 100 | 75.1 | 100 | 75.1 | 100 | 100 | 0 | – | – | – | – | – | – | – | – | – | – | – | –
6 | C=C1CN(C(C)(C)c2cc(Cl)cc(Cl)c2)C(=O)C1(C(=O)OC)c1ccccc1 (stereo not drawn) | – | – | – | – | – | – | – | – | 99 | 99 | 99 | 100 | 95 | 0 | 70 | 0 | 99 | 99 | 0 | 40
7 | COC(=O)C1(c2ccccc2)C(=O)N(C(C)(C)c2cccc(Cl)n2)C=C1C (stereo not drawn) | 0 | 100 | 100 | 87.6 | 87.6 | 100 | 100 | 87.6 | – | – | – | – | – | – | – | – | – | – | – | –
8 | COC(=O)C1(c2ccccc2)C(=O)N(C(C)(C)c2cc(Cl)nc(Cl)c2)C=C1C (stereo not drawn) | 50.1 | 100 | 100 | 100 | 87.6 | 100 | 100 | 87.6 | 90 | 98 | 80 | 99 | 70 | 0 | 30 | 0 | 75 | 99 | 0 | 50
9 | COC(=O)C1(c2ccccc2)C(=O)N(C(C)(C)c2cnc3ccccc3c2)C=C1C (stereo not drawn) | 0 | 100 | 50.1 | 100 | 87.6 | 100 | 100 | 0 | – | – | – | – | – | – | – | – | – | – | – | –

Reference: ChEMBL document CHEMBL3044903, “Synthesis and Herbicidal Activity of Novel 3-Alkoxycarbonyl-3-aryl-2,3-dihydro-2-oxo-1H-pyrrole Derivatives” (J Pestic Sci, 2004)
